Data: publication PMC11606603, “The membrane domains of mammalian adenylyl cyclases are lipid receptors” (eLife, 2024)
Values joined by “and” are separate entries in the source; they are usually repeats but may differ in a detail not shown here. Identical values can stand only once.

Assays:
Assay type in all cases: biochemical
mAC3 = molecular target: T1, mAC3 (Homo sapiens, UniProt O60266); assay: AC assay, Gsα-stimulated mAC3 in membranes from transfected HEK293 cells; settings: for mAC3 activity [%] (100% = 300nM Gsα stimulation): fatty acid 20 µM, individual experiments; for Effect of lipid on 300 nM Gsα-stimulated mAC3: 20 µM, in words
T1 construct: Human mAC genes were from GenScript and fitted with a C-terminal FLAG-tag; FLAG (C); made in house; host or cells: HEK293, permanently transfected; membrane preparation
Description: (§1) hAC sequences were from NCBI were: ADCY1: NM_021116.3; ADCY2: NM_020546.2; ADCY3: NM_004036.4; ADCY4: NM_001198568.2; ADCY5: NM_183357.2; ADCY6: NM_015270.4; ADCY7: NM_001114.4; ADCY8: NM_001115.2; ADCY9: NM_001116.3. Human mAC genes were from GenScript and fitted with a C-terminal FLAG-tag. […] The gene was synthesized by GenScript. HEK293 cells were maintained in Dulbeccos Modified Eagle Medium (DMEM) with 10% fetal bovine serum at 37°C and 5% CO2. Transfection with AC plasmids was with PolyJet (SignaGen, Frederick, MD, USA). Permanent cell lines were generated by selection for 7 days with 600 µg/ml G418 and maintained with 300 µg/ml For membrane preparation, cells were tyrpsinized, collected by centrifugation (3000 × g, 5 min) and lysed and homogenized in 20 mM HEPES, pH 7.5, 1 mM Ethylenediaminetetraacetic acid (EDTA), 2 mM MgCl2, 1 mM Dithiothreitol (DTT), one tablet of cOmplete, EDTA-free (per 50 ml) and 250 mM sucrose by 20 strokes in a potter homogenizer on ice. Debris was removed (5 min at 1000 × g, 0°C), membranes were collected at 100,000 × g, 60 min at 0°C, suspended and stored at −80°C in 20 mM MOPS, pH 7.5, 0.5 mM EDTA, 2 mM MgCl2. […] Three cerebral cortices were dissected and homogenized in 4.5 ml cold 48 mM Tris–HCl, pH 7.4, 12 mM MgC1_2, and 0.1 mM Ethylene glycol-bis(β-aminoethyl ether)-N,N,N′,N′-tetraacetic acid (EGTA) with a Polytron hand disperser (Kinematica AG, Switzerland). […] The pellet was washed once with 5 ml 1 mM KHCO3. The final suspension in 2 ml 1 mM KHCO3 was stored in aliquots at −80°C.
(§2) In a volume of 10 μl, AC activities were measured using 1 mM ATP, 2 mM MgCl2, 3 mM creatine phosphate, 60 μg/ml creatine kinase, and 50 mM MOPS pH 7.5. The cAMP assay kit from Cisbio (Codolet, France) was used for detection according to the supplier’s instructions. For each assay, a cAMP standard curve was established. EC50 and IC50 values were calculated by GraphPad Prism version 8.4.3 for Windows, GraphPad Software, San Diego, CA, USA, https://www.graphpad.com .

mAC2 = molecular target: T2, mAC2 (Homo sapiens, UniProt Q08462); assay: AC assay, Gsα-stimulated mAC2 in membranes from transfected HEK293 cells; settings: Figure 5-figure supplement 1 left, 20 µM
T2 construct: Human mAC genes were from GenScript and fitted with a C-terminal FLAG-tag; FLAG (C); made in house; host or cells: HEK293, permanently transfected; membrane preparation
Description: as §1, §2

mAC5 = molecular target: T3, mAC5 (Homo sapiens, UniProt O95622); assay: AC assay, Gsα-stimulated mAC5 in membranes from transfected HEK293 cells; settings: 20µM fatty acid concentration
T3 construct: Human mAC genes were from GenScript and fitted with a C-terminal FLAG-tag; FLAG (C); made in house; host or cells: HEK293, permanently transfected; membrane preparation
Description: as §1, §2

mAC9 = molecular target: T4, mAC9 (Homo sapiens, UniProt O60503); assay: AC assay, Gsα-stimulated mAC9 in membranes from transfected HEK293 cells
T4 construct: Human mAC genes were from GenScript and fitted with a C-terminal FLAG-tag; FLAG (C); made in house; host or cells: HEK293, permanently transfected; membrane preparation
Description: as §1, §2

mAC8 = molecular target: T5, mAC8 (Homo sapiens, UniProt P40145); assay: AC assay, Gsα-stimulated mAC8 in membranes from transfected HEK293 cells; settings: 20µM fatty acid concentration
T5 construct: Human mAC genes were from GenScript and fitted with a C-terminal FLAG-tag; FLAG (C); made in house; host or cells: HEK293, permanently transfected; membrane preparation
Description: as §1, §2

mAC4 = molecular target: T6, mAC4 (Homo sapiens, UniProt Q8NFM4); assay: AC assay, Gsα-stimulated mAC4 in membranes from transfected HEK293 cells; settings: 20 µM fatty acid; 300 nM Gsα; single experiments
T6 construct: Human mAC genes were from GenScript and fitted with a C-terminal FLAG-tag; FLAG (C); made in house; host or cells: HEK293, permanently transfected; membrane preparation
T6 sequence (Q8NFM4 1-1077): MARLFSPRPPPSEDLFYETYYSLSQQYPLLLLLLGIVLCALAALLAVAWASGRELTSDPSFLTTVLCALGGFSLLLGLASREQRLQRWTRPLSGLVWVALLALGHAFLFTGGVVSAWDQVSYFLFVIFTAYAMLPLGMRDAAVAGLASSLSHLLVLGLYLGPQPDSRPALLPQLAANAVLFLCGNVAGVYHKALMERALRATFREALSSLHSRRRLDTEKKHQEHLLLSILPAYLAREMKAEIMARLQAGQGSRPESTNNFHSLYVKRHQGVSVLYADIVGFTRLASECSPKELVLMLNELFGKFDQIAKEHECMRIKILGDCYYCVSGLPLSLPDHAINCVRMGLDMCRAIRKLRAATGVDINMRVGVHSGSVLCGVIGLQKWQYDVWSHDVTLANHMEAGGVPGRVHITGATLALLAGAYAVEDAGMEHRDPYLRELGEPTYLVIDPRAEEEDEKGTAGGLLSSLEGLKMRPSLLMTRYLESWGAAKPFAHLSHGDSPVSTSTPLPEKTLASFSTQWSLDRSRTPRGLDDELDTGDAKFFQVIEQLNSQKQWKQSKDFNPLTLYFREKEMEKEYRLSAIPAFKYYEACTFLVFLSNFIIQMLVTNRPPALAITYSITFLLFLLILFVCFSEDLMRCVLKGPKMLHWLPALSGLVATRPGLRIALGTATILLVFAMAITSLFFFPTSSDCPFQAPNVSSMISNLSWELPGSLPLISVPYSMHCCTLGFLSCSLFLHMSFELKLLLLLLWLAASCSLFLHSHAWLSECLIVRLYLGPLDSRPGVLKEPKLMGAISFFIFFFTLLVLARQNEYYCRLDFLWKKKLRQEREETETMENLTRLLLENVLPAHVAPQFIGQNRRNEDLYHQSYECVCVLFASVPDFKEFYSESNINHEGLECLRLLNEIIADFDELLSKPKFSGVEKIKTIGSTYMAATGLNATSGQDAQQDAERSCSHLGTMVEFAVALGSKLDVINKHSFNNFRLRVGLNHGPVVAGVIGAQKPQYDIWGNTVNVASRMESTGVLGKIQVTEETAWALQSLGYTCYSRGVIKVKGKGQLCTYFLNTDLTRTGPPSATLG
Description: as §1, §2

mAC6 = molecular target: T7, mAC6 (Homo sapiens, UniProt O43306); assay: AC assay, Gsα-stimulated mAC6 in membranes from transfected HEK293 cells; settings: 20µM fatty acid concentration
T7 construct: Human mAC genes were from GenScript and fitted with a C-terminal FLAG-tag; FLAG (C); made in house; host or cells: HEK293, permanently transfected; membrane preparation
Description: as §1, §2

mAC1 = molecular target: T8, mAC1 (Homo sapiens, UniProt Q08828); assay: AC assay, Gsα-stimulated mAC1 in membranes from transfected HEK293 cells; settings: 20 µM fatty acid; 300 nM Gsα; single experiments
T8 construct: Human mAC genes were from GenScript and fitted with a C-terminal FLAG-tag; FLAG (C); made in house; host or cells: HEK293, permanently transfected; membrane preparation
Description: as §1, §2

mAC7 = molecular target: T9, mAC7 (Homo sapiens, UniProt P51828); assay: AC assay, Gsα-stimulated mAC7 in membranes from transfected HEK293 cells; settings: Figure 5-figure supplement 2 left, 20 µM
T9 construct: Human mAC genes were from GenScript and fitted with a C-terminal FLAG-tag; FLAG (C); made in house; host or cells: HEK293, permanently transfected; membrane preparation
Description: as §1, §2

[1] = 3 µM fatty acid, 300 nM Gsα, single experiments
[2] = 6 µM fatty acid, 300 nM Gsα, single experiments

T1 sequence (O60266 whole entry): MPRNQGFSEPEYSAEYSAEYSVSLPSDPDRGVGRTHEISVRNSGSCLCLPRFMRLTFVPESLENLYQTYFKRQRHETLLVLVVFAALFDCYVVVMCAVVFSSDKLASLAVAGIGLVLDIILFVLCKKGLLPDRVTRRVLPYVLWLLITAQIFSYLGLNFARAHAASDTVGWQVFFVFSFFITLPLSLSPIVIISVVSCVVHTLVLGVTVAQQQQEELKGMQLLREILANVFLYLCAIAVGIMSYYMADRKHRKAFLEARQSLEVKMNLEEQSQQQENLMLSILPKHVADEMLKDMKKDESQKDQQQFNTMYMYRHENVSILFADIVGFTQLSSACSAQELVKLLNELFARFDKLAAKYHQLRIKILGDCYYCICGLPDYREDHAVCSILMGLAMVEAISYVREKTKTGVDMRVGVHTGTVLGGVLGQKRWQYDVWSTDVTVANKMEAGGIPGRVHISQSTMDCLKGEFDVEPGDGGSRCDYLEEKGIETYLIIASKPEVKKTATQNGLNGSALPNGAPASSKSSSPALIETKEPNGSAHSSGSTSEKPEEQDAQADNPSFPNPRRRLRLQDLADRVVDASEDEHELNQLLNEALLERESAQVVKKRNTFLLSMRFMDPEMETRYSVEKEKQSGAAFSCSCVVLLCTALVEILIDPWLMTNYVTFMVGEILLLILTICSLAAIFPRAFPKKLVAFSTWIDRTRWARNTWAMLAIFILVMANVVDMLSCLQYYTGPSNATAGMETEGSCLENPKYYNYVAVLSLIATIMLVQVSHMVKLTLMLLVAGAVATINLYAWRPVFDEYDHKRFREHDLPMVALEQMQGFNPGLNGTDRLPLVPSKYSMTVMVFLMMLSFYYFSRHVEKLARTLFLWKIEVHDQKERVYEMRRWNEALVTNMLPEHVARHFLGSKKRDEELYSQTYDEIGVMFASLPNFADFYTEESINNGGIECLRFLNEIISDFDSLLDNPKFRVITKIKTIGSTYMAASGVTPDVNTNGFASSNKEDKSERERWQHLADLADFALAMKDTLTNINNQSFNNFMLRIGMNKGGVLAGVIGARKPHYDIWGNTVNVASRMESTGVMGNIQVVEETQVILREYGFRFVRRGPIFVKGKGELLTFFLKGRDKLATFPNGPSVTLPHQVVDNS
T1 sequence (P63092 whole entry Q227L partner): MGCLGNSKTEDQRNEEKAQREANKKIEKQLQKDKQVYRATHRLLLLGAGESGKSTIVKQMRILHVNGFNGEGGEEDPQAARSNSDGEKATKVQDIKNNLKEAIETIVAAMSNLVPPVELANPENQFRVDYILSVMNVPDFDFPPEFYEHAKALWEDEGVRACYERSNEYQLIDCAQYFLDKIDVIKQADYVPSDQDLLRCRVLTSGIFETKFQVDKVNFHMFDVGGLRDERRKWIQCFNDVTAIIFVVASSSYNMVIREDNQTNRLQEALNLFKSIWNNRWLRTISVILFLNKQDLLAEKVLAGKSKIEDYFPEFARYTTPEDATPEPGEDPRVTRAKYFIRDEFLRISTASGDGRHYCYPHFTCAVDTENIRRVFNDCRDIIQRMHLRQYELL
T2 sequence (Q08462 whole entry): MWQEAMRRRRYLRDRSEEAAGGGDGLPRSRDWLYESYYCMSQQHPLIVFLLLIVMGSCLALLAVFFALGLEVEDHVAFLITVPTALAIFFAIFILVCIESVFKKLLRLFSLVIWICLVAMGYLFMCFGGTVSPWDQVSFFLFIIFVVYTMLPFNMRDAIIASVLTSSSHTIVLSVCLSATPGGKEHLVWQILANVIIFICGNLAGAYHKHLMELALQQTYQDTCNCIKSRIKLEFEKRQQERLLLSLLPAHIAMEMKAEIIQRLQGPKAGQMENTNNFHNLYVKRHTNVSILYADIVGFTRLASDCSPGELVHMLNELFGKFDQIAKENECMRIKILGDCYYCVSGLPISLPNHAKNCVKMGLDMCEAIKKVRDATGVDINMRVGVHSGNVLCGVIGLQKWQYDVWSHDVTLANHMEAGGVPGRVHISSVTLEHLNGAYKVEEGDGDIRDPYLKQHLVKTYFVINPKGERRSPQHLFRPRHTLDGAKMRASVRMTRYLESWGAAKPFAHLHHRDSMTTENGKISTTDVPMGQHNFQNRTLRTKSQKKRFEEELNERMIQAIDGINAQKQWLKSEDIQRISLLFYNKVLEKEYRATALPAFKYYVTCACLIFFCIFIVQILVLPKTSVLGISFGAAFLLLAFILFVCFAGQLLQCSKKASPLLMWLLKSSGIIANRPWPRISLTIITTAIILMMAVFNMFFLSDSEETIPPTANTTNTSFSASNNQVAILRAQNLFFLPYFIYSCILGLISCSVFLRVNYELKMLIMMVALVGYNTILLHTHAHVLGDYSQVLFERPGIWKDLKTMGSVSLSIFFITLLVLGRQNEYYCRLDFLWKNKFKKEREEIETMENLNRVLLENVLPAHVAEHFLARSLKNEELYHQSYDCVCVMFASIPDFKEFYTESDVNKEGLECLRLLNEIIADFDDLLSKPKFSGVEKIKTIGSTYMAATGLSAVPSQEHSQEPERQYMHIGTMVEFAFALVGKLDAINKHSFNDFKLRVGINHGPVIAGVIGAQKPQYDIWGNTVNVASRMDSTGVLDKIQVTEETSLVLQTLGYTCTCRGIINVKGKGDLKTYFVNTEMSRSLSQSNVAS
T2 sequence (P63092 2-394 Q227L partner): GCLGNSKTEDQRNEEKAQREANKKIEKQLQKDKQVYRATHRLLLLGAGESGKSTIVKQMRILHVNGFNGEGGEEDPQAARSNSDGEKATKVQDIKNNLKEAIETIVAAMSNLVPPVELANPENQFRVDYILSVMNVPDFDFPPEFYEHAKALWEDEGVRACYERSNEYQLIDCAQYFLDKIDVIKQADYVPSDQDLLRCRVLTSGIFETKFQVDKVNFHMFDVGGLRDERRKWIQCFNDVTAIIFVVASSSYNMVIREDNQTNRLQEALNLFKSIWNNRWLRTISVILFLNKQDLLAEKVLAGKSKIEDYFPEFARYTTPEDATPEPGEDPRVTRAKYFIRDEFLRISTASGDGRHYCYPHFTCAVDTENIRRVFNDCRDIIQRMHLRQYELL
T3 sequence (O95622 whole entry): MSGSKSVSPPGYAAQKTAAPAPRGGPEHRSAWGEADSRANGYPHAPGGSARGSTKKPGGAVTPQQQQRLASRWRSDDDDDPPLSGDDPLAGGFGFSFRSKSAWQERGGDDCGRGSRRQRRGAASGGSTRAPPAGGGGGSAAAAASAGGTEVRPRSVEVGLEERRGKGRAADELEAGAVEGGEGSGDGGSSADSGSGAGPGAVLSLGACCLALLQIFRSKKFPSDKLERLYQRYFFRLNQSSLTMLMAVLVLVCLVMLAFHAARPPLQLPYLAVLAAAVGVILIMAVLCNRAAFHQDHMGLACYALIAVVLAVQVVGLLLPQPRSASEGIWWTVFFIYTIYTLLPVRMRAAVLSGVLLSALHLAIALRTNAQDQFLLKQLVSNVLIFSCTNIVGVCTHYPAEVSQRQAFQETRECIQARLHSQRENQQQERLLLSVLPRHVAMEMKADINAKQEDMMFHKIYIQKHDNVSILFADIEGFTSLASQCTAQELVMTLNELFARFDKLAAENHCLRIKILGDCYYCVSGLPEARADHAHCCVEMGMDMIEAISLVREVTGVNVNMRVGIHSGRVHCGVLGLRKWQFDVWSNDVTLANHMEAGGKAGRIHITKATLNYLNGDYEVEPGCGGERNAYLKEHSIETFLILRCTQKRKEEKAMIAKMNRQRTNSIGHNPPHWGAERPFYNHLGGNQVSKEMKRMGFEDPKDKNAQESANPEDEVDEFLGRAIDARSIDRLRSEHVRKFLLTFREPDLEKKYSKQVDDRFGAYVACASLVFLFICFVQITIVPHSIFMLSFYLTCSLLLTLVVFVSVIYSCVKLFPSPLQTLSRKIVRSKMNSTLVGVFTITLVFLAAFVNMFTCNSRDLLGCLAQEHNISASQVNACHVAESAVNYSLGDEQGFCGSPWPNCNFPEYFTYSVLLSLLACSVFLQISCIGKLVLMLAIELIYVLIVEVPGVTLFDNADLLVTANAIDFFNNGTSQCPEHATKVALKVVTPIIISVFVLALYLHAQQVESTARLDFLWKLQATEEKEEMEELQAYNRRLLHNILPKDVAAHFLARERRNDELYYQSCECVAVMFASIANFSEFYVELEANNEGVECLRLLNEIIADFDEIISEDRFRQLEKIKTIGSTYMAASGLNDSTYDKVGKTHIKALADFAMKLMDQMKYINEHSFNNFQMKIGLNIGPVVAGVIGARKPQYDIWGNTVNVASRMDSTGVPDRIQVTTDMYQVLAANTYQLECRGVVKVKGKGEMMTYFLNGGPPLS

Row | Structure (SMILES) | mAC3 activity [%] (100% = 300nM Gsα stimulation) (mAC3) | mAC2 activity [%] (100% = 300nM Gsα stimulation); 20µM fatty acid concentration (mAC2) | mAC5 activity [%] (100% = 300nM Gsα stimulation) (mAC5) | mAC9 activity (%);(100% = Gsα stimulation) stimulated by 300nM Gsα (mAC9; [1]) | mAC9 activity (%);(100% = Gsα stimulation) stimulated by 300nM Gsα (mAC9; [2]) | EC50 (mAC9; enhancement of 300 nM Gsα-stimulated activity, read-out: EC50 for mAC9) | mAC8 activity [%] (100% = 300nM Gsα stimulation) (mAC8) | mAC4 activity [%] (100% = 300nM Gsα stimulation); 20µM fatty acid concentration (mAC4) | mAC6 activity [%] (100% = 300nM Gsα stimulation) (mAC6) | mAC9 activity [%] (100% = 300nM Gsα stimulation); 20µM fatty acid concentration (mAC9; 20 µM fatty acid, 300 nM Gsα, single experiments) | mAC1 activity [%] (100% = 300nM Gsα stimulation); 20µM fatty acid concentration (mAC1) | mAC7 activity [%] (100% = 300nM Gsα stimulation); 20µM fatty acid concentration (mAC7) | Effect of lipid on 300 nM Gsα-stimulated mAC3 (mAC3) | mAC9 activity (%);(100% = Gsα stimulation) stimulated by 300nM Gsα (mAC9; 1 µM fatty acid, 300 nM Gsα, single experiments) | mAC9 activity (%);(100% = Gsα stimulation) stimulated by 300nM Gsα (mAC9; 10 µM fatty acid, 300 nM Gsα, single experiments)
1 | CCCCCCCCCCCC(=O)O [Lauric acid, Lauric (dodecanoic) acid] | 117% and 189% and 186% and 84% | 89% and 79% | 107% and 56% | 128% and 86% and 116% | 165% and 99% and 97% and 190% | 13.7 µM | 80% and 69% | 54% and 104% and 67% | 93% and 80% |  |  |  |  |  | 
2 | CCCCCCCC/C=C\CCCCCCCC(=O)OC [Me-Oleate, Methyl oleate] | 141% and 90% | 121% and 73% | 60% and 91% |  |  |  |  | 77% and 99% | 78% and 90% | 86% and 143% | 99% and 63% | 115% and 85% |  |  | 
3 | CCCCC/C=C\C/C=C\CCCCCCCC(=O)O [Linoleic acid, Linoleic ((9Z,12Z)-octadecadienoic) acid] | 376% and 503% and 335% and 235% and 456% | 118% and 99% and 198% and 131% | 112% and 153% | 129% and 139% and 117% and 119% | 164% and 205% and 170% and 134% and 195% |  | 119% and 212% and 115% and 129% |  | 105% and 198% and 128% |  | 62% and 76% and 95% | 135% and 130% | efficient enhancers | 145% and 101% and 154% and 180% | 240% and 217% and 225% and 306% and 322% and 286% and 203%
4 | CCCCCCCC/C=C\CCCCCCCC(N)=O [Oleamide, Oleamide ((9Z)-octadecenamide)] | 154% and 144% and 201% and 238% and 301% and 167% and 90% and 168% | 133% and 84% | 97% and 111% |  |  |  | 104% and 74% | 104% and 64% and 83% | 98% and 77% |  | 99% and 109% | 107% and 99% | less efficacious |  | 
